Assay results from publication PMC10645073, “Interaction of gallium, indium and vanadyl diacetylcurcumin complexes with lysozyme: mechanistic aspects and evaluation of antiamyloidogenic activity” (Royal Society Open Science, 2023).
pIC50: −log10 of the molar value.

What was measured:
[1] = molecular target: T1, hen egg white lysozyme (HEWL) (Gallus gallus, UniProt P00698); assay: Synchronous fluorescence spectroscopy of HEWL; format: binding; conditions: Δλ = 60 nm
T1 construct: whose 129 amino acid residues are linked together by four disulfide bridges to form a single polypeptide chain; purchased Sigma-Aldrich L6876; host or cells: hen egg white (natural source, per the protein's name)
Method: To obtain synchronous fluorescence spectra, simultaneous scanning of excitation and emission monochromators was performed in such a way as to maintain a constant wavelength interval between them. The changes in the molecular microenvironment of tyrosine and tryptophan residues of HEWL were monitored by fixing the wavelength interval (Δλ = λem − λex) individually at 15 and 60 nm, respectively. The concentrations of HEWL and three metal complexes of diacetylcurcumin were the same as those mentioned for the intrinsic fluorescence spectroscopy.
To investigate the effect of the metal complexes of diacetylcurcumin on the conformation of tyrosine and tryptophan residues of HEWL, synchronous fluorescence spectra of HEWL were recorded alone and in the presence of the metal complexes (electronic supplementary material, figure S5). By fixing the Δλ value, i.e. the difference between excitation and emission wavelengths, at 15 and 60 nm, synchronous fluorescence spectroscopy provides useful information on the microenvironmental changes of tyrosine and tryptophan residues of proteins, respectively. As shown in the electronic supplementary material, figure S5, all three metal complexes of diacetylcurcumin strongly quench the emission fluorescence of HEWL at both 15 and 60 nm. […] At Δλ = 15 nm, no shift in the emission maximum of HEWL is observed, whereas at Δλ = 60 nm, a 2 nm blue shift is observed in the emission spectrum of tryptophan residues of the protein after the interaction with the metal complexes of diacetylcurcumin except for the VO(DAC)2 complex. […] Overall, it can be concluded that the formation of HEWL/metal complex bioconjugates is associated with the binding of three metal complexes of diacetylcurcumin to both tyrosine and tryptophan residues in which the conformational changes can occur only around the tryptophan residues of the protein. It should be noted that the reduction in the polarity of the microregions surrounding tryptophan residues of the protein has already been observed by the intrinsic emission fluorescence titrations (see §3.1.1.).

mouse lymphoma cells = system: mouse lymphoma cells; design: method as in PMID 16171869; conditions: read-out: IC50 cytotoxicity; cited from earlier work
[2] = molecular target: T1, hen egg white lysozyme (HEWL); assay: Intrinsic fluorescence quenching of HEWL (Stern-Volmer, double logarithmic and van't Hoff analysis); format: binding; conditions: for KSV (Stern-Volmer quenching constant): HEWL 3 µM; for kq (bimolecular quenching rate constant): kq = KSV/τ0, τ0 10^−8 s; for blue shift of HEWL emission maximum on quenching: excitation 295 nm, emission maximum 345 nm; for fluorescence quenching mechanism: from KSV versus temperature and kq; for main forces / modes of interaction stabilizing the bioconjugate: from signs of ΔH^0 and ΔS^0; for binding constant, order of magnitude: summary of table 1; for ΔH^0 (enthalpy change of binding) / ΔS^0 (entropy change of binding): van't Hoff plot over 293–308 K
Method: The intrinsic fluorescence spectra of HEWL (3 µM) in the absence and presence of Ga(DAC)3, In(DAC)3 and VO(DAC)2 complexes were collected using a Varian Cary Eclipse fluorescence spectrophotometer equipped with a 10 mm quartz cell by adjusting the excitation wavelength to 295 nm and setting the width of both excitation and emission slits at 5 nm. After adding the mentioned concentrations of the metal complexes of diacetylcurcumin to HEWL solution, the samples were scanned in the wavelength range of 300–500 nm. Corrections were made for the inner filter effect on the fluorescence spectra according to the following equation: Fcor=Fobs×10^(Aex+Aem)/2, where Fcor is corrected fluorescence intensity, Fobs is the observed (uncorrected) fluorescence intensity, Aex is the absorbance at the fluorescence excitation wavelength and Aem is the absorbance at the selected fluorescence emission wavelength.
The fluorescence quenching process of HEWL in the presence of three metal complexes of diacetylcurcumin can be quantified according to the well-known Stern-Volmer equation:3.1 F0/F=1+KSV[Q]=1+kqτ0[Q],
where F0 and F represent the intrinsic emission intensities of HEWL fluorophores, respectively, in the absence and presence of the metal complexes of diacetylcurcumin, and [Q] is the molar concentration of quencher. KSV, kq and τ0 denote the Stern-Volmer quenching constant, bimolecular quenching rate constant, and the average lifetime of fluorophore without quencher, respectively. The value of KSV, as a parameter of the sensitivity of the fluorophore to a quencher, can be estimated from the slope of the linear plot of F0/F as a function of [Q] (figure 2d,e,f; electronic supplementary material, figure S1). To obtain more accurate quantification of fluorescence data, the total area of the emission fluorescence peaks (S0 and S) was applied instead of the emission fluorescence intensities (F0 and F). The fluorescence quenching phenomenon can be generally divided into two distinct classes: static quenching and dynamic quenching. Owing to the reciprocal and direct correlations between the KSV parameter and temperature, respectively, for static and dynamic quenching, the observed trend in the KSV value versus temperature can be used to distinguish these mechanisms from each other. In dynamic quenching, an increase in temperature leads to faster diffusion of molecules by which weakly bound nonfluorescent complexes are further dissociated, and the value of KSV increases. From the data recorded in table 1, it can be seen that the KSV value of HEWL/Ga(DAC)3 and HEWL/In(DAC)3 systems decreases as temperature increases, while it increases with increasing temperature for the HEWL/VO(DAC)2 system. […] Considering a lifetime value of 10^−8 s for the native fluorophores, [27] the equation kq = KSV/τ0 gives the kq values greater than the diffusion-limited quenching value of 2.0 × 10 ^+ 10 M^−1 s^−1 for all systems.
Assuming that all the binding sites of HEWL are identical and independent and an equilibrium interaction is established between HEWL and each of the metal complexes of diacetylcurcumin, the fluorescence quenching process can be further analysed by the following double logarithmic equation:3.2 log(F0−F/F)=logKb+nlog[Q], where Kb and n represent the binding constant and number of binding sites on each HEWL molecule, respectively. Plotting log[(F0 − F)/F] versus log[Q] produces a straight line whose slope and intercept can be used respectively to estimate the values of n and Kb (electronic supplementary material, figures S2A, S2B, S2C and S3). […] In other words, the resulting bioconjugates are the product of the interaction between HEWL and the metal complexes of diacetylcurcumin with a 1 : 1 stoichiometry. […]

Structure (SMILES): COc1cc(C=CC(=O)C=C([O-])C=Cc2ccc(OC(C)=O)c(OC)c2)ccc1OC(C)=O.COc1cc(C=CC(=O)C=C([O-])C=Cc2ccc(OC(C)=O)c(OC)c2)ccc1OC(C)=O.COc1cc(C=CC(=O)C=C([O-])C=Cc2ccc(OC(C)=O)c(OC)c2)ccc1OC(C)=O.[In+3] [In(DAC)3, indium diacetylcurcumin]
- microenvironment of tryptophan residues of HEWL [1]: more hydrophobic
- pIC50 (mouse lymphoma cells): 4.60 to 4.70
- n (number of binding sites on each HEWL molecule) ([2]; T 293 K): (1.26 ± 0.01)
- ΔG^0 (Gibbs free energy change of binding) ([2]; T 293 K): -8.368 ± 0.0024 kcal/mol
- KSV (Stern-Volmer quenching constant) ([2]; T 293 K): (0.10 ± 0.00) × 10^+6 M^−1
- kq (bimolecular quenching rate constant) ([2]; T 293 K): (0.10 ± 0.00) × 10^+14 M^−1 s^−1
- n (number of binding sites on each HEWL molecule) ([2]; T 303 K): (1.25 ± 0.04)
- ΔG^0 (Gibbs free energy change of binding) ([2]; T 303 K): -8.65 ± 0.0024 kcal/mol
- KSV (Stern-Volmer quenching constant) ([2]; T 303 K): (9.61 ± 0.10) × 10^+5 M^−1
- kq (bimolecular quenching rate constant) ([2]; T 303 K): (9.61 ± 0.10) × 10^+13 M^−1 s^−1
- n (number of binding sites on each HEWL molecule) ([2]; T 308 K): (1.25 ± 0.02)
- ΔG^0 (Gibbs free energy change of binding) ([2]; T 308 K): -8.788 ± 0.0024 kcal/mol
- KSV (Stern-Volmer quenching constant) ([2]; T 308 K): (1.04 ± 0.02) × 10^+5 M^−1
- kq (bimolecular quenching rate constant) ([2]; T 308 K): (1.04 ± 0.02) × 10^+13 M^−1 s^−1
- blue shift of HEWL emission maximum on quenching [2]: 4 nm
- fluorescence quenching mechanism [2]: static mechanism
- main forces / modes of interaction stabilizing the bioconjugate [2]: electrostatic interactions
- binding constant, order of magnitude [2]: 10^+6 M^−1
- ΔH^0 (enthalpy change of binding) [2]: -0.148 ± 0 kcal/mol
- ΔS^0 (entropy change of binding) [2]: 117.38 ± 0.01 J mol^−1 K^−1

Structure (SMILES): COc1cc(/C=C/C(=O)C=C([O-])/C=C/c2ccc(OC(C)=O)c(OC)c2)ccc1OC(C)=O.COc1cc(/C=C/C(=O)C=C([O-])/C=C/c2ccc(OC(C)=O)c(OC)c2)ccc1OC(C)=O.[O]=[V+2] [VO(DAC)2, vanadyl diacetylcurcumin]
- microenvironment of tryptophan residues of HEWL [1]: remains unaffected
- pIC50 (mouse lymphoma cells): 5.00 to 5.15
- n (number of binding sites on each HEWL molecule) ([2]; T 293 K): (1.35 ± 0.04)
- ΔG^0 (Gibbs free energy change of binding) ([2]; T 293 K): -8.217 ± 0.858 kcal/mol
- KSV (Stern-Volmer quenching constant) ([2]; T 293 K): (2.70 ± 0.02) × 10^+4 M^−1
- kq (bimolecular quenching rate constant) ([2]; T 293 K): (2.70 ± 0.02) × 10^+12 M^−1 s^−1
- n (number of binding sites on each HEWL molecule) ([2]; T 298 K): (1.15 ± 0.03)
- ΔG^0 (Gibbs free energy change of binding) ([2]; T 298 K): -6.993 ± 0.858 kcal/mol
- KSV (Stern-Volmer quenching constant) ([2]; T 298 K): (2.70 ± 0.04) × 10^+4 M^−1
- kq (bimolecular quenching rate constant) ([2]; T 298 K): (2.70 ± 0.04) × 10^+12 M^−1 s^−1
- n (number of binding sites on each HEWL molecule) ([2]; T 303 K): (0.93 ± 0.02)
- ΔG^0 (Gibbs free energy change of binding) ([2]; T 303 K): -5.767 ± 0.858 kcal/mol
- KSV (Stern-Volmer quenching constant) ([2]; T 303 K): (2.78 ± 0.03) × 10^+4 M^−1
- kq (bimolecular quenching rate constant) ([2]; T 303 K): (2.78 ± 0.03) × 10^+12 M^−1 s^−1
- n (number of binding sites on each HEWL molecule) ([2]; T 308 K): (0.75 ± 0.04)
- ΔG^0 (Gibbs free energy change of binding) ([2]; T 308 K): -4.543 ± 0.858 kcal/mol
- KSV (Stern-Volmer quenching constant) ([2]; T 308 K): (2.80 ± 0.02) × 10^+4 M^−1
- kq (bimolecular quenching rate constant) ([2]; T 308 K): (2.80 ± 0.02) × 10^+12 M^−1 s^−1
- blue shift of HEWL emission maximum on quenching [2]: 2 nm
- fluorescence quenching mechanism [2]: dual mechanism, including both static and dynamic quenching
- main forces / modes of interaction stabilizing the bioconjugate [2]: van der Waals interactions and hydrogen bonds
- binding constant, order of magnitude [2]: 10^+6 to 10^+3 M^−1
- ΔH^0 (enthalpy change of binding) [2]: -79.988 ± 0.246 kcal/mol
- ΔS^0 (entropy change of binding) [2]: −1024.87 ± 3.44 J mol^−1 K^−1
